Calls of active or inactive are those of the source.
Tests used:
[1] = Vero cell cytotoxicity, dose response, cytotoxicity control for Vif-APOBEC3G degradation inhibitor project, Vero cells (AID 1117358); assay type: functional; conditions: Human immunodeficiency virus 1, Vero
Bcl-2-related protein A1 [2] = target: T1, Bcl-2-related protein A1 (Mus musculus, UniProt Q07440); assay: Bfl-1 binding inhibitors, SAR follow-up, biochemical, fluorescence polarization (AID 1070)
T1 sequence (Q07440 whole entry): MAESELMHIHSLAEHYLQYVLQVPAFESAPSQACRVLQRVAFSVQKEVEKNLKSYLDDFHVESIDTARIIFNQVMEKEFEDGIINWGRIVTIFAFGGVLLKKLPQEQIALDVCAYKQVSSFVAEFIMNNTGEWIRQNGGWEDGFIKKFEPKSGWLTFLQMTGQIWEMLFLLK

Bcl-2-related protein A1 [3] = target: T1, Bcl-2-related protein A1; assay: Bfl-1 inhibitors blocking BH3 peptide binding, confirmation, biochemical, TR-FRET, mouse Bfl-1 (AID 621);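 also: TR-FRET binding of GST-Bfl-1 to FITC-labelled Bid peptide via terbium antibody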
[4] = ZM109 Env clade C HIV-1 fusion inhibitors, dose response, HeLa effector, CEM target cells, luciferase, cherry-pick (AID 652058); assay type: functional, cell-based
[5] = inhibitors of HIV Env-driven cell fusion, dose response, cherry-pick (AID 652057); assay type: functional, cell-based
[6] = inhibitors of clade B AD8 Env fusion, dose response, cell-based, cherry-pick (AID 652062); assay type: functional;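 also: luciferase signal from cell-cell fusion driven by HIV-1 clade B AD8 Env; potency is for inhibitors of fusion seen as a drop in luminescence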
[7] = off-target signal loss in HeLa-CEM21 co-culture – HeLa F-luc CTL cells, cherry-picked, counter-screen for HIV-1 Env fusion inhibitor project, dose response (AID 652040); assay type: functional, cell-based;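 also: potency for signal decrease marking cytotoxic or nonspecific inhibition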
[8] = target: Glyceraldehyde-3-phosphate dehydrogenase (Homo sapiens, UniProt P04406)
Sequence of Glyceraldehyde-3-phosphate dehydrogenase (P04406 whole entry): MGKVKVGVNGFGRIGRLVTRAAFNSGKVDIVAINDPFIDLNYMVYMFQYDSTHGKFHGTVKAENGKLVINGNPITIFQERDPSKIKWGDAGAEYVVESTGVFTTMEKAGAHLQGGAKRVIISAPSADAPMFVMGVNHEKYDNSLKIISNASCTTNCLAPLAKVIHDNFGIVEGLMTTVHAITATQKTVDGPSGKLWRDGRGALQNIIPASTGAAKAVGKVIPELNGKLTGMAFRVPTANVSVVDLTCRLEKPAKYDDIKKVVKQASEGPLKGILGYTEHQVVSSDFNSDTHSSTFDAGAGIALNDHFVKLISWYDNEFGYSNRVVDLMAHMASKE

H9c2 = assay: cells; assay type: functional, cell-based; conditions: Rattus norvegicus, H9c2, Myocardium;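 also: confirmatory concentration-response retest of ultra-high-throughput screening hits for modulation of myocardial damage; cell death induced by hydrogen peroxide oxidative stress; compound pretreatment for 60 min then peroxide exposure for 2 h; potency is for protecting the cells against peroxide damage rather than for killing them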
fMet-Leu-Phe receptor = target: T2, fMet-Leu-Phe receptor (Homo sapiens, UniProt P21462); assay: FPR ligands, dose response (AID 519); assay type: functional
T2 sequence (P21462 whole entry): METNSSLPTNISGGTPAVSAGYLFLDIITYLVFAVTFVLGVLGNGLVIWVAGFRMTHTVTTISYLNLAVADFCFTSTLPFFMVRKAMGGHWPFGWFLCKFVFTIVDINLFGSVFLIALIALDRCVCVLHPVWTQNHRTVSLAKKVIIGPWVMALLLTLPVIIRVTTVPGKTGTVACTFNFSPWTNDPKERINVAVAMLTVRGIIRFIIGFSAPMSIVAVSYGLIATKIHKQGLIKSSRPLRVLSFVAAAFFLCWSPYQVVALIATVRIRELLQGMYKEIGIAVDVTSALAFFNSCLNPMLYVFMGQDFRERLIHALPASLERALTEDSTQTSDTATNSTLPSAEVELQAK

[9] = ADAM10 protease inhibitors, dose response, selectivity assay for ADAM17 exosite inhibitor project, biochemical, FRET peptide substrate, recombinant human ADAM10 (AID 743259);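 also: ADAM10 enzyme cleaving a FRET peptide substrate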
[10] = target: Disintegrin and metalloproteinase domain-containing protein 17 (Homo sapiens, UniProt P78536); assay: exosite inhibitors of ADAM17, dose response, biochemical (AID 743260)
Sequence of Disintegrin and metalloproteinase domain-containing protein 17 (P78536 whole entry, the tested form may be a part): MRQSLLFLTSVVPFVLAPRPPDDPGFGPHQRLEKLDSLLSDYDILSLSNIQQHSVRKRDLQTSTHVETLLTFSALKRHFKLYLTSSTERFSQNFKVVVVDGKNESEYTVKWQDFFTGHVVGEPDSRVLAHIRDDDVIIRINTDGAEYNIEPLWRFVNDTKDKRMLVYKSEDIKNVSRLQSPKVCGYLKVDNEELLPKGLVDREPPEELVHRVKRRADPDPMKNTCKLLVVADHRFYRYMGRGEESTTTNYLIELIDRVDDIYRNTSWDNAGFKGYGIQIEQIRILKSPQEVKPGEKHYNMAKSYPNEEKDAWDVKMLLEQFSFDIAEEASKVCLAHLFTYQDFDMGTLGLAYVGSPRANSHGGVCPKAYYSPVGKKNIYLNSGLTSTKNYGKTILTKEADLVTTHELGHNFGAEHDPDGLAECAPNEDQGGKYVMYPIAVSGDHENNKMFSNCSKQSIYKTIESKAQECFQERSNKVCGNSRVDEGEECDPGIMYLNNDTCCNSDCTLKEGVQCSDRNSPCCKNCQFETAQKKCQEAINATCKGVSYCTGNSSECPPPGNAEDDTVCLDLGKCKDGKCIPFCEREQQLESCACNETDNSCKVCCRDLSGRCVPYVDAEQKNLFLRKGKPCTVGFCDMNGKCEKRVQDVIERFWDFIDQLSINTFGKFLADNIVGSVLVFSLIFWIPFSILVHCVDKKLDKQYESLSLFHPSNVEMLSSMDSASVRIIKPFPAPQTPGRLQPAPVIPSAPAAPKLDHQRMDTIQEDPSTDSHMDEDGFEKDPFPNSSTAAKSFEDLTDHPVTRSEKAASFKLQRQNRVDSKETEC

[11] = target: T3, Trace amine-associated receptor 1 (Homo sapiens, UniProt Q96RJ0); assay: Fluorescence-based cell-based high throughput dose response assay to identify agonists of the human trace amine associated receptor 1 (TAAR1).; assay type: functional
T3 sequence (Q96RJ0 whole entry): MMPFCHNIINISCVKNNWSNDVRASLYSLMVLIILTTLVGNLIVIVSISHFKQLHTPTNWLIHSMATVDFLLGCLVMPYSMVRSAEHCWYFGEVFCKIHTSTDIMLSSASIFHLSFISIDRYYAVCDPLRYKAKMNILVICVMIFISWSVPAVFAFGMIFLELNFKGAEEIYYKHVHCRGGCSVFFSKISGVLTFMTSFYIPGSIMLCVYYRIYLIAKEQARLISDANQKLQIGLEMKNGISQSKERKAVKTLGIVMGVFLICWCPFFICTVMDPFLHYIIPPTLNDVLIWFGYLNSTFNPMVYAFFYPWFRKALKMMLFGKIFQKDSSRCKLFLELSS

cells [12] = assay type: functional, cell-based
cells [13] = assay type: functional, cell-based; remark: listed apart in the source
[14] = target: T3, Trace amine-associated receptor 1; assay: Counterscreen for agonists of the human trace amine associated receptor 1 (hTAAR1): Fluorescence-based cell-based high throughput dose response assay to identify hTAAR1 agonist that also desensitize TAAR1 receptor response.; assay type: functional
[15] = cytotoxicity in HEK-293T cells, dose response, cytotoxicity control for TCR NF-kB inhibitor project, luminescence, T-cell screen hits (AID 489026); assay type: functional, cell-based;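 also: cells exposed to compound about 14 hours before the viability readout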
[16] = MC4R antagonists, dose response, counter-screen for LGR2 antagonist project, cell-based, plate reader, cherry pick (AID 743444); assay type: functional;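 also: transfected HEK 293 cells stimulated with alpha-MSH peptide; potency of inhibitors of the alpha-MSH evoked signal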
[17] = A549 cell cytotoxicity, dose response, cytotoxicity control, plate reader, cherry-pick, antagonist series (AID 743412); assay type: functional, cell-based
[18] = HepG2 cell cytotoxicity, dose response, cytotoxicity control, plate reader, cherry-pick, antagonist series (AID 743416); assay type: functional, cell-based
Paired box protein Pax-8 = Paired box protein Pax-8 (Homo sapiens, UniProt Q06710); assay: inhibitors of PAX8-driven TPO luciferase reporter, dose response, RMG-I cells, cherry-pick (AID 687027); assay type: functional, cell-based;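 also: luciferase reporter driven by Pax8 target thyroperoxidase promoter measured by SteadyGlo luminescence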
Sequence of Paired box protein Pax-8 (Q06710 whole entry): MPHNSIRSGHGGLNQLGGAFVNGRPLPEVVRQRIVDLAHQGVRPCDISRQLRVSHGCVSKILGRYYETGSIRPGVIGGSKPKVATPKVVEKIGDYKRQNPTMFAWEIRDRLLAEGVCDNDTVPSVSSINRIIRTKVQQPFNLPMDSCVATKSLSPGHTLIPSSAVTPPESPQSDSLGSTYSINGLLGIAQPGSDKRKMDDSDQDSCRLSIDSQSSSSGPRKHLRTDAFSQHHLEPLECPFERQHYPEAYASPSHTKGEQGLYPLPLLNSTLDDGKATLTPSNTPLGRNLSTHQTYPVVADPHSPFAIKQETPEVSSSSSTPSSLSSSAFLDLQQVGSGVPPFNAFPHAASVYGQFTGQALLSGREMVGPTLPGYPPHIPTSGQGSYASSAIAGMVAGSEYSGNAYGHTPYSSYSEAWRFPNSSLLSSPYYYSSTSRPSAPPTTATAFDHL

[19] = IGROV1 ovarian cancer cell cytotoxicity, dose response, PAX8 inhibitor project, plate reader, dry powder samples (AID 743043); assay type: functional, cell-based; conditions: IGROV-1
[20] = NIH:OVCAR-3 ovarian cancer cell cytotoxicity, dose response, PAX8 inhibitor project, plate reader, dry powder samples (AID 743044); assay type: functional, cell-based

With `O=c1c2ccccc2c(-c2ccccc2)nn1-c1cc(Cl)ccc1[N+](=O)[O-]` the CC50 [1] was > 40 µM (active).
With `Clc1ccc(-n2nnc(-c3cccnc3)n2)cn1` the IC50 (Bcl-2-related protein A1 [2]) was > 100 µM (not active) and the IC50 (Bcl-2-related protein A1 [3]) was > 100 µM (not active).
For `COCCN(C(=O)COC(=O)C12CC3CC(CC(Cl)(C3)C1)C2)c1c(N)n(Cc2ccccc2)c(=O)[nH]c1=O`, the AC50 [4] was 10.2 µM (active), the AC50 [5] was 4.61 µM (active) and the AC50 [6] was 1.44 µM (active). The AC50 [7] was 10.7 µM (active).
In the case of `O=C1C2CC=CCC2C(=O)N1c1nc(-c2ccco2)n[nH]1` (configuration not stated), the IC50 [8] is reported as > 100 µM (not active).
With `COc1ccc2nc(O)c(-c3nnn(-c4ccc(F)cc4)n3)cc2c1` the IC50 (Bcl-2-related protein A1 [2]) was > 100 µM (not active), the IC50 (H9c2) was 37.1 µM (inactive) and the IC50 (Bcl-2-related protein A1 [3]) was > 100 µM (not active).
With `CC1Oc2ccccc2N(Cc2ccccc2Cl)C1=O` (configuration not stated) the Ki (fMet-Leu-Phe receptor) was > 66.7 µM (inactive).
In the case of `COc1cc(SC)ccc1C(=O)NCCOc1ccc(C)c(C)c1`, the IC50 [9] is reported as 27.5 µM (inactive) and the IC50 [10] is reported as > 69.5 µM (inactive).
With `O=C(Nc1ccccc1)Nc1ccncc1` the EC50 [11] was 1.02 µM (active), the EC50 (cells [12]) was > 29.9 µM (inactive) and the IC50 (cells [13]) was > 29.9 µM (inactive). For the same compound, the IC50 [14] was 7.05 µM (active).
For `O=C(C[n+]1ccccc1)Nc1nc2ccccc2s1`, the IC50 [9] was > 69.5 µM (inactive) and the IC50 [10] was > 69.5 µM (inactive).
In the case of `COc1ccc(-n2nnnc2-c2ccccc2)cc1`, the CC50 [1] is reported as > 40 µM (active) and the IC50 [15] is reported as > 80 µM (inactive).
With `CCCCN(Cc1ccccc1)S(=O)(=O)c1cc2c(cc1Br)CC(C)N2C(C)=O` (configuration not stated) the AC50 [16] was 58.1 µM (active), the IC50 [9] was 12.6 µM (inactive) and the AC50 [17] was 28.8 µM (active). For the same compound, the AC50 [18] was 46 µM (active) and the IC50 [10] was > 69.5 µM (inactive).
With `COc1cccc(S(=O)(=O)Nc2ccc3c(c2)[C@@H]2C[C@@H](CC(=O)NCc4ccc(Cl)cc4)O[C@@H](CO)[C@@H]2O3)c1` the AC50 (Paired box protein Pax-8) was 3.36 µM (active), the AC50 [19] was 60.3 µM (active) and the AC50 [20] was 25.9 µM (active).
In the case of `NC(Cc1ccccc1)c1csc(Nc2ccc(C(=O)NCCO)cc2)n1` (configuration not stated), the EC50 [11] is reported as 4.32 µM (active), the EC50 (cells [12]) is reported as > 29.9 µM (inactive) and the IC50 (cells [13]) is reported as > 29.9 µM (inactive). The IC50 [14] was > 29.9 µM (inactive).
For `CCCCCCCCN1C(=O)[C@@H](CC(=O)NCCc2ccccc2OC)C[C@@]2(C(=O)OC)C1=C[C@H](C1CCCC1)O[C@@H]2C`, the EC50 [11] was 3.22 µM (active), the EC50 (cells [12]) was > 29.9 µM (inactive) and the IC50 (cells [13]) was > 29.9 µM (inactive). For the same compound, the IC50 [14] was 8.54 µM (active).
For `COc1ccc2c(=O)c(N3C(=O)c4ccccc4C3=O)c(C)oc2c1`, the Ki (fMet-Leu-Phe receptor) was > 66.7 µM (inactive).
For `CC(C)CCN(N=O)[C@@H](Cc1ccccc1)CN(N=O)[C@@H](Cc1ccccc1)CN(C)N=O`, the AC50 [4] was 6.6 µM (active), the AC50 [5] was 5.26 µM (active) and the AC50 [6] was 5.64 µM (active). For the same compound, the AC50 [7] was 34.7 µM (active).
In the case of `Cc1cc(N/N=C/c2ccccc2O)nc(N2CCOCC2)n1`, the EC50 [11] is reported as > 29.9 µM (inactive), the EC50 (cells [12]) is reported as > 29.9 µM (inactive) and the IC50 (cells [13]) is reported as > 29.9 µM (inactive). The IC50 [14] was 2.52 µM (active).
